Experiments:
[1] = LPR corrosion test of copper coupons in synthetic water with free chlorine (Gamry corrosion cell); conditions: for deterioration in corrosion resistance when free chlorine is added: FAC 1 ppm after 1 hr
Protocol: Several classes of compounds at various concentrations were tested to determine their potential to inhibit corrosion of copper alloy in aqueous systems as shown in Table 1 below.
1 liter samples of synthetic water were each dosed with 5 ppm of a different glucamide compound (A, B, C, D) according to Formula (I) above and 50 ppm of a standard scale inhibitor. Another 1 liter sample of synthetic water was dosed with 4 ppm of tolyltriazole and 50 ppm of the standard scale inhibitor product.
The apparatus used for the corrosion testing was a Gamry Multiport Corrosion Cell and Gamry Reference 600+ potentiostat with multiplexor. Copper coupons (CDA110) were added to the sample cells, and the cells were heated to 50° C. and maintained at this temperature throughout the testing. The cells were continuously stirred at a speed of 350 rpm. A cylindrical working electrode was submerged into the test solutions, and an LPR sweep (linear polarization resistance) was performed every hour for 18 hours. After the one hour mark, 1 ppm of free chlorine was dosed into the corrosion cell.

[2] = Solubility in sodium hydroxide (NaOH); type: physicochemical; conditions: solubilized in sodium hydroxide (NaOH)
Description: Moreover, conventional treatment methods involve solubilizing corrosion inhibitors in sodium hydroxide (NaOH). Solubility of benzimidazoles and polymeric acids such as 4,5-imidazoledicarboxylic acid in NaOH is low, i.e., less than 2%. […] These and other issues are addressed by the present disclosure.

Solubility in NaOH [2] | Compound | corrosion inhibition properties (corrosion rates, FIG. 1) as compared to the triazole inhibitors ([1]; Example 1, IMDCC 5, 2.5, 1 ppm vs HST 0.5/0.25/0.1 ppm and TTA 0.5 ppm, CDA110, 50° C., entire 18 hour period) | deterioration in corrosion resistance when free chlorine is added ([1]; Example 1, IMDCC 5, 2.5, 1 ppm, CDA110, 50° C.) | corrosion inhibition properties (corrosion rates, FIG. 2) as compared to the triazole inhibitors ([1]; Example 2, IMDCC 1 ppm, CT1 + IMDCC 100 ppm + 1 ppm vs HST 0.5 ppm, CDA110, 50° C., entire 18 hour period) | deterioration in corrosion resistance when free chlorine is added ([1]; Example 2, IMDCC 1 ppm, CT1 + IMDCC 100 ppm + 1 ppm, unlike the CT1 inhibitor) | corrosion inhibition properties (corrosion rates, FIG. 3) as compared to the triazole inhibitors ([1]; Example 3, IMDCC 2.0, 1 ppm, HST + IMDCC 0.10+0.90 to 0.90+0.10 ppm vs HST 1/0.5/0.25 ppm, CDA110, 50° C., entire 18 hour period) | deterioration in corrosion resistance when free chlorine is added ([1]; Example 3, IMDCC 2.0, 1 ppm, HST + IMDCC 0.10+0.90 to 0.90+0.10 ppm) | corrosion inhibition properties (corrosion rates, FIG. 4) as compared to the triazole inhibitors ([1]; Example 4, IMDCC 2.0, 1 ppm, CT2 + IMDCC 50 ppm + 1 ppm, 25 ppm + 2 ppm, CDA110, 50° C., entire 18 hour period) | deterioration in corrosion resistance when free chlorine is added ([1]; Example 4, IMDCC 2.0, 1 ppm, CT2 + IMDCC 50 ppm + 1 ppm, 25 ppm + 2 ppm, unlike the CT2 inhibitor)
– | Imidazole dicarboxylate [IMDCC] | superior corrosion inhibition properties | do not exhibit any substantial deterioration | superior corrosion inhibition properties | do not exhibit any substantial deterioration | superior corrosion inhibition properties | do not exhibit any substantial deterioration | superior corrosion inhibition properties | do not exhibit any substantial deterioration
less than 2% | O=C(O)c1nc[nH]c1C(=O)O [4,5-imidazoledicarboxylic acid] | – | – | – | – | – | – | – | –

Reference: US20250109504A1, “HETEROCYCLIC NON-TRIAZOLE COMPOUNDS AND METHODS FOR INHIBITING CORROSION IN INDUSTRIAL WATER TREATMENT” (CHEMTREAT, INC., priority 2023, published 2025)
